According to PubChem BioAssay AID1963850 (Molecular Pharmacology Branch, DTP, NCI, 2024):

Test system: 192522-019-R-J2-PDC complex tumor spheroid viability
Test: Anticancer human tumor 192522-019-R-J2-PDC patient-derived colon adenocarcinoma cell line growth inhibition [POLQ]
Details: for IC50: curve of first compound; for viability, T/C: stronger effect = lower value
Outline: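 Growth inhibition in 3D: complex spheroids (tumor PDC, HUVEC, MSC) treated with POLQ inhibitor combinations; where Cmax unknown, highest tested concentration 10 microM, except SN-38 at 1 microM.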

[1] = second compound 0.0316 µM, first compound 0.0316 µM
[2] = second compound 0.0316 µM, first compound 0.1 µM
[3] = second compound 0.0316 µM, first compound 0.316 µM
[4] = second compound 0.0316 µM, first compound 1 µM
[5] = second compound 0.0316 µM, first compound 3.16 µM
[6] = second compound 0.0316 µM, first compound 10 µM
[7] = second compound 0.1 µM, first compound 0.0316 µM
[8] = second compound 0.1 µM, first compound 0.1 µM
[9] = second compound 0.1 µM, first compound 0.316 µM
[10] = second compound 0.1 µM, first compound 1 µM
[11] = second compound 0.1 µM, first compound 3.16 µM
[12] = second compound 0.1 µM, first compound 10 µM
[13] = second compound 0.316 µM, first compound 0.0316 µM
[14] = second compound 0.316 µM, first compound 0.1 µM
[15] = second compound 0.316 µM, first compound 0.316 µM
[16] = second compound 0.316 µM, first compound 1 µM
[17] = second compound 0.316 µM, first compound 3.16 µM
[18] = second compound 0.316 µM, first compound 10 µM
[19] = second compound 1 µM, first compound 0.0316 µM
[20] = second compound 1 µM, first compound 0.1 µM
[21] = second compound 1 µM, first compound 0.316 µM
[22] = second compound 1 µM, first compound 1 µM
[23] = second compound 1 µM, first compound 3.16 µM
[24] = second compound 1 µM, first compound 10 µM
[25] = second compound 3.16 µM, first compound 0.0316 µM
[26] = second compound 3.16 µM, first compound 0.1 µM
[27] = second compound 3.16 µM, first compound 0.316 µM
[28] = second compound 3.16 µM, first compound 1 µM
[29] = second compound 3.16 µM, first compound 3.16 µM
[30] = second compound 3.16 µM, first compound 10 µM
[31] = second compound 10 µM, first compound 0.0316 µM
[32] = second compound 10 µM, first compound 0.1 µM
[33] = second compound 10 µM, first compound 0.316 µM
[34] = second compound 10 µM, first compound 1 µM
[35] = second compound 10 µM, first compound 3.16 µM
[36] = second compound 10 µM, first compound 10 µM
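Further: spheroids exposed to drugs for seven days before reading.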
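Wherever viability, T/C is given: 100% = DMSO vehicle control viability in luminescence.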

Compound: O=C(c1cc(Cc2n[nH]c(=O)c3ccccc23)ccc1F)N1CCN(C(=O)C2CC2)CC1 + Cc1cccc(N(C)C(=O)C2C(O)CCN2c2nc(C)cc(C(F)(F)F)c2C#N)c1
- IC50 (second compound 0.0316 µM): > 10 µM
- IC50 (second compound 0.1 µM): > 10 µM
- IC50 (second compound 0.316 µM): > 10 µM
- IC50 (second compound 1 µM): > 10 µM
- IC50 (second compound 3.16 µM): > 10 µM
- IC50 (second compound 10 µM): > 10 µM
- viability, T/C [1]: 101%
- viability, T/C [2]: 82.3%
- viability, T/C [3]: 98%
- viability, T/C [4]: 88.1%
- viability, T/C [5]: 98.5%
- viability, T/C [6]: 92.6%
- viability, T/C [7]: 107%
- viability, T/C [8]: 92.8%
- viability, T/C [9]: 107%
- viability, T/C [10]: 95.9%
- viability, T/C [11]: 100%
- viability, T/C [12]: 101%
- viability, T/C [13]: 97.8%
- viability, T/C [14]: 94.9%
- viability, T/C [15]: 101%
- viability, T/C [16]: 96.1%
- viability, T/C [17]: 106%
- viability, T/C [18]: 93.2%
- viability, T/C [19]: 96.1%
- viability, T/C [20]: 106%
- viability, T/C [21]: 104%
- viability, T/C [22]: 96.9%
- viability, T/C [23]: 111%
- viability, T/C [24]: 106%
- viability, T/C [25]: 102%
- viability, T/C [26]: 111%
- viability, T/C [27]: 107%
- viability, T/C [28]: 91.3%
- viability, T/C [29]: 103%
- viability, T/C [30]: 111%
- viability, T/C [31]: 99.9%
- viability, T/C [32]: 98.5%
- viability, T/C [33]: 103%
- viability, T/C [34]: 93.7%
- viability, T/C [35]: 116%
- viability, T/C [36]: 109%

Compound: COc1ccc([C@@H](O)c2cc(-c3ncnc4cc(N5CCOCC5)ccc34)c(F)cc2Cl)nn1 + Nc1ccc(C#CCN(C(=O)Cc2ncc(C(F)(F)F)cc2C(F)(F)F)c2ccc(F)cc2)nn1
- IC50 (second compound 0.0316 µM): > 10 µM
- IC50 (second compound 0.1 µM): > 10 µM
- IC50 (second compound 0.316 µM): > 10 µM
- IC50 (second compound 1 µM): > 10 µM
- IC50 (second compound 3.16 µM): > 10 µM
- IC50 (second compound 10 µM): > 10 µM
- viability, T/C [1]: 116%
- viability, T/C [2]: 97.3%
- viability, T/C [3]: 93.7%
- viability, T/C [4]: 85.8%
- viability, T/C [5]: 75.8%
- viability, T/C [6]: 55.4%
- viability, T/C [7]: 106%
- viability, T/C [8]: 97.4%
- viability, T/C [9]: 98.7%
- viability, T/C [10]: 90.1%
- viability, T/C [11]: 86.2%
- viability, T/C [12]: 65.5%
- viability, T/C [13]: 100%
- viability, T/C [14]: 101%
- viability, T/C [15]: 102%
- viability, T/C [16]: 102%
- viability, T/C [17]: 75.3%
- viability, T/C [18]: 59.9%
- viability, T/C [19]: 102%
- viability, T/C [20]: 104%
- viability, T/C [21]: 98.1%
- viability, T/C [22]: 90.8%
- viability, T/C [23]: 93.2%
- viability, T/C [24]: 75%
- viability, T/C [25]: 107%
- viability, T/C [26]: 101%
- viability, T/C [27]: 99%
- viability, T/C [28]: 93.6%
- viability, T/C [29]: 84.1%
- viability, T/C [30]: 65.9%
- viability, T/C [31]: 104%
- viability, T/C [32]: 111%
- viability, T/C [33]: 102%
- viability, T/C [34]: 102%
- viability, T/C [35]: 82%
- viability, T/C [36]: 73.2%

Compound: Nc1ccn(C2OC(CO)C(O)C2(F)F)c(=O)n1 (stereo not drawn) + COC1C(OC(N)=O)C(O)C(Oc2ccc3c(O)c(NC(=O)c4ccc(O)c(CC=C(C)C)c4)c(=O)oc3c2C)OC1(C)C
- IC50 (second compound 0.0316 µM): > 10 µM
- IC50 (second compound 0.1 µM): > 10 µM
- IC50 (second compound 0.316 µM): > 10 µM
- IC50 (second compound 1 µM): > 10 µM
- IC50 (second compound 3.16 µM): > 10 µM
- IC50 (second compound 10 µM): > 10 µM
- viability, T/C [1]: 98.8%
- viability, T/C [2]: 72.9%
- viability, T/C [3]: 75.7%
- viability, T/C [4]: 63.5%
- viability, T/C [5]: 66%
- viability, T/C [6]: 53.9%
- viability, T/C [7]: 95.6%
- viability, T/C [8]: 80.1%
- viability, T/C [9]: 76.5%
- viability, T/C [10]: 66%
- viability, T/C [11]: 58%
- viability, T/C [12]: 57.3%
- viability, T/C [13]: 90.2%
- viability, T/C [14]: 79.7%
- viability, T/C [15]: 72.6%
- viability, T/C [16]: 62.4%
- viability, T/C [17]: 60.3%
- viability, T/C [18]: 59.5%
- viability, T/C [19]: 86.1%
- viability, T/C [20]: 84.9%
- viability, T/C [21]: 73.9%
- viability, T/C [22]: 72%
- viability, T/C [23]: 56.2%
- viability, T/C [24]: 58.4%
- viability, T/C [25]: 91.9%
- viability, T/C [26]: 87.3%
- viability, T/C [27]: 74.8%
- viability, T/C [28]: 62.9%
- viability, T/C [29]: 62.6%
- viability, T/C [30]: 53.5%
- viability, T/C [31]: 95.8%
- viability, T/C [32]: 89.4%
- viability, T/C [33]: 75.7%
- viability, T/C [34]: 65.1%
- viability, T/C [35]: 66.9%
- viability, T/C [36]: 58.7%

Compound: C=CCn1c(=O)c2cnc(Nc3ccc(N4CCN(C)CC4)cc3)nc2n1-c1cccc(C(C)(C)O)n1 + Nc1ccc(C#CCN(C(=O)Cc2ncc(C(F)(F)F)cc2C(F)(F)F)c2ccc(F)cc2)nn1
- IC50 (second compound 0.0316 µM): 0.732 µM
- IC50 (second compound 0.1 µM): 0.757 µM
- IC50 (second compound 0.316 µM): 0.799 µM
- IC50 (second compound 1 µM): 0.778 µM
- IC50 (second compound 3.16 µM): 0.901 µM
- IC50 (second compound 10 µM): 0.833 µM
- viability, T/C (second compound 0.0316 µM, first compound 0.00316 µM): 104%
- viability, T/C (second compound 0.0316 µM, first compound 0.01 µM): 103%
- viability, T/C [1]: 93%
- viability, T/C [2]: 91.8%
- viability, T/C [3]: 92.4%
- viability, T/C [4]: 34.1%
- viability, T/C (second compound 0.1 µM, first compound 0.00316 µM): 107%
- viability, T/C (second compound 0.1 µM, first compound 0.01 µM): 103%
- viability, T/C [7]: 97.5%
- viability, T/C [8]: 96.6%
- viability, T/C [9]: 93.2%
- viability, T/C [10]: 35.9%
- viability, T/C (second compound 0.316 µM, first compound 0.00316 µM): 105%
- viability, T/C (second compound 0.316 µM, first compound 0.01 µM): 97.4%
- viability, T/C [13]: 92.3%
- viability, T/C [14]: 99.8%
- viability, T/C [15]: 93%
- viability, T/C [16]: 39.5%
- viability, T/C (second compound 1 µM, first compound 0.00316 µM): 103%
- viability, T/C (second compound 1 µM, first compound 0.01 µM): 108%
- viability, T/C [19]: 102%
- viability, T/C [20]: 95.2%
- viability, T/C [21]: 89.7%
- viability, T/C [22]: 39%
- viability, T/C (second compound 3.16 µM, first compound 0.00316 µM): 108%
- viability, T/C (second compound 3.16 µM, first compound 0.01 µM): 101%
- viability, T/C [25]: 104%
- viability, T/C [26]: 94.8%
- viability, T/C [27]: 97.8%
- viability, T/C [28]: 45.3%
- viability, T/C (second compound 10 µM, first compound 0.00316 µM): 112%
- viability, T/C (second compound 10 µM, first compound 0.01 µM): 113%
- viability, T/C [31]: 110%
- viability, T/C [32]: 106%
- viability, T/C [33]: 98.5%
- viability, T/C [34]: 40.2%
